{"source": "patent US6033867A", "about": "“Fructosyl amino acid oxidase, process for producing the same, and method of assaying amadori compounds using the enzyme” (Kyoto Daiichi Kagaku Co., Ltd., priority 1995, dated 2000)", "key": {"[1]": {"tested_on": "FAOD-A", "experiment": "Effect of various inhibitors on FAOD-A activity", "type": "biochemical, A. terreus IFO6365", "conditions": "for inhibition of FAOD-A activity, in words: PCMB 0.1 mM, others 1 mM", "experimental": "(§1) To an enzyme solution was added a solution containing a metal ion to be tested at a final concentration of 1 mM in 0.1 M Tris-HCl buffer (pH 8.0). After 5-minute-incubation at 30° C., the enzyme activity was assayed.\n(§2) The inhibitory effect of various substances was tested in a manner substantially analogous to that described in (1) above. In the present test, the final concentration of parachloro mercuric benzoate (PCMB) is 0.1 mM while that of others 1 mM."}, "[2]": {"biological_target": "T1, FAOD-L (Aspergillus terreus, UniProt Q92204)", "T1 construct": "94 kDa by gel filtration, 48 kDa subunit, so homodimer", "experiment": "Effect of metal ion on the activity of FAOD-L", "type": "biochemical, A. terreus GP1", "conditions": "for relative activity (%): material 1 mM, 0.1 M Tris-HCl pH 8.0, 5 min at 30° C., None = 100; for effect of metal ion on FAOD-L, in words: 1 mM", "experimental": "as §1"}, "[3]": {"tested_on": "FAOD-A", "experiment": "Effect of metal ion on the activity of FAOD-A", "type": "biochemical, A. terreus IFO6365", "conditions": "for effect of metal ion on FAOD-A, in words: 1 mM", "experimental": "as §1"}, "[4]": {"biological_target": "T1, FAOD-L", "experiment": "Effect of various inhibitors on FAOD-L activity", "type": "biochemical, A. terreus GP1", "conditions": "for inhibition of FAOD-L activity, in words: PCMB 0.1 mM, others 1 mM", "experimental": "as §1, §2"}, "[5]": {"biological_target": "T2, FAOD-L originated from A. terreus GP1 (Aspergillus terreus, UniProt Q92204)", "T2 construct": "94 kDa by gel filtration, 48 kDa subunit, so homodimer", "T2 sequence (Q92204 1-437)": "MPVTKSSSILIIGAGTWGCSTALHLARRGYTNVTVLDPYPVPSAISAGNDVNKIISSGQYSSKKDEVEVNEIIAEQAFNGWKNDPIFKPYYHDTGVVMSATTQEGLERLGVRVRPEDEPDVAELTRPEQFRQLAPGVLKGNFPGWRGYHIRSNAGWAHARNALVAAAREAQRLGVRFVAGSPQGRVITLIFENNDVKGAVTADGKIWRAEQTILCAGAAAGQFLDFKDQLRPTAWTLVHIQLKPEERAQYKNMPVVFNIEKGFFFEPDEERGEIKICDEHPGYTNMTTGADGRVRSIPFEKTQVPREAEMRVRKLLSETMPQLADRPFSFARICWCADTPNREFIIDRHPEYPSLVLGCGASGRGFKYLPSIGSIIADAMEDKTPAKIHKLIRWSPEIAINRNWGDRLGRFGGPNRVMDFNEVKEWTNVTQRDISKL", "experiment": "Substrate specificity of FAOD-L", "type": "biochemical", "experimental": "(§3) A 100 mM FZL solution was prepared by dissolving previously-obtained FZL in distilled water. To 100 μl of 45 mM 4-aminoantipyrine, 100 μl of 60 U/ml peroxidase, 100 μl of 60 mM phenol, 1 ml of 0.1 M Tris-HCl buffer (pH 8.0) and 50 μl of enzyme solution was added distilled water to total volume of 3.0 ml. The mixture was incubated at 30° C. for 2 minutes, 50 μl of 100 mM FZL solution was added thereto, and the time course of absorbance at 505 nm was measured. The amount (μmole) of hydrogen peroxide generated per minute was calculated on the basis of molar absorptivity (5.16×10^3 M^-1 cm^-1) of quinone pigment produced, and the resultant numerical value was taken as a unit(U) of enzyme activity."}, "[6]": {"tested_on": "FAOD-A originated from A. terreus IFO6365", "experiment": "Substrate specificity of FAOD-A", "type": "biochemical", "experimental": "as §3"}, "[7]": {"conditions": "material 1 mM, 0.1 M Tris-HCl pH 8.0, 5 min at 30° C., None = 100"}, "[8]": {"conditions": "substrate concentration 1.67 mM"}}}
{"molecule": "O=C(O)CI", "note": "[Acetic iodide]", "values": [{"measurement": "relative activity (%)", "setting": "[1]", "value": 66, "unit": "%"}]}
{"molecule": "[Ca+2].[Cl-].[Cl-]", "note": "[CaCl2]", "values": [{"measurement": "relative activity (%)", "setting": "[2]", "value": 96, "unit": "%"}, {"measurement": "relative activity (%)", "setting": "[3]; [7]", "value": 104, "unit": "%"}]}
{"molecule": "[Cl-].[Cs+]", "note": "[CsCl]", "values": [{"measurement": "relative activity (%)", "setting": "[3]; [7]", "value": 108, "unit": "%"}]}
{"molecule": "O=C(O)c1cc(SSc2ccc([N+](=O)[O-])c(C(=O)O)c2)ccc1[N+](=O)[O-]", "note": "[DTNB, 5,5Dithiobis(2-nitrobenzoic acid)]", "values": [{"measurement": "inhibition of FAOD-A activity, in words", "setting": "[1]", "value": "inhibit the FAOD-A activity completely"}, {"measurement": "inhibition of FAOD-L activity, in words", "setting": "[4]", "value": "inhibit the FAOD-L activity strongly"}]}
{"molecule": "O=S(=O)([O-])[O-].[Fe+2]", "note": "[FeSO4]", "values": [{"measurement": "relative activity (%)", "setting": "[2]", "value": 95, "unit": "%"}]}
{"molecule": "[Cl-].[Li+]", "note": "[LiCl]", "values": [{"measurement": "relative activity (%)", "setting": "[3]; [7]", "value": 103, "unit": "%"}]}
{"molecule": "[Cl-].[Cl-].[Mg+2]", "note": "[MgCl2]", "values": [{"measurement": "relative activity (%)", "setting": "[2]", "value": 101, "unit": "%"}, {"measurement": "relative activity (%)", "setting": "[3]; [7]", "value": 108, "unit": "%"}]}
{"molecule": "[Cl][Mn][Cl]", "note": "[MnCl2]", "values": [{"measurement": "relative activity (%)", "setting": "[2]", "value": 101, "unit": "%"}, {"measurement": "effect of metal ion on FAOD-A, in words", "setting": "[3]", "value": "inhibitory"}, {"measurement": "relative activity (%)", "setting": "[3]; [7]", "value": 59, "unit": "%"}]}
{"molecule": "O=C(N[C@@H](CCCCNCC(=O)[C@@H](O)[C@H](O)[C@H](O)CO)C(=O)O)OCc1ccccc1", "note": "[N^ε -fructosyl N^α -Z-lysine]", "values": [{"measurement": "Specific activity (%)", "setting": "[5]; [8]", "value": 100, "unit": "%"}, {"measurement": "Specific activity (%)", "setting": "[6]; [8]", "value": 100, "unit": "%"}]}
{"molecule": "[Cl-].[Na+]", "note": "[NaCl]", "values": [{"measurement": "relative activity (%)", "setting": "[3]; pH 8", "value": 104, "unit": "%"}]}
{"molecule": "[Cl-].[Rb+]", "note": "[RbCl]", "values": [{"measurement": "relative activity (%)", "setting": "[3]; [7]", "value": 107, "unit": "%"}]}
{"molecule": "[Co]", "note": "[cobalt]", "values": [{"measurement": "effect of metal ion on FAOD-A, in words", "setting": "[3]", "value": "inhibitory"}]}
{"molecule": "[Cu+2]", "note": "[copper]", "values": [{"measurement": "effect of metal ion on FAOD-L, in words", "setting": "[2]", "value": "inhibitory"}]}
{"molecule": "NN", "note": "[hydrazine]", "values": [{"measurement": "inhibition of FAOD-A activity, in words", "setting": "[1]", "value": "inhibit the FAOD-A activity completely"}, {"measurement": "inhibition of FAOD-L activity, in words", "setting": "[4]", "value": "inhibit the FAOD-L activity strongly"}]}
{"molecule": "NO", "note": "[hydroxylamine]", "values": [{"measurement": "relative activity (%)", "setting": "[1]; material 1 mM, None = 100", "value": 10, "unit": "%"}, {"measurement": "relative activity (%)", "setting": "[4]; material 1 mM, None = 100", "value": 2, "unit": "%"}]}
{"molecule": "c1cnc2c(c1)ccc1cccnc12", "note": "[o-Phenanthroline]", "values": [{"measurement": "relative activity (%)", "setting": "[1]; material 1 mM, None = 100", "value": 62, "unit": "%"}]}
{"molecule": "O=C(O)c1cc[c]([Hg][Cl])cc1", "note": "[p-CMB, parachloro mercuric benzoate]", "values": [{"measurement": "inhibition of FAOD-A activity, in words", "setting": "[1]", "value": "inhibit the FAOD-A activity completely"}, {"measurement": "inhibition of FAOD-L activity, in words", "setting": "[4]", "value": "inhibit the FAOD-L activity strongly"}]}
{"molecule": "NNc1ccccc1", "note": "[phenylhydrazine]", "values": [{"measurement": "inhibition of FAOD-A activity, in words", "setting": "[1]", "value": "inhibit the FAOD-A activity completely"}]}
{"molecule": "NNC(N)=O", "note": "[semicarbazide]", "values": [{"measurement": "relative activity (%)", "setting": "[1]; material 1 mM, None = 100", "value": 64, "unit": "%"}]}
{"molecule": "[Ag+]", "note": "[silver]", "values": [{"measurement": "effect of metal ion on FAOD-L, in words", "setting": "[2]", "value": "inhibited completely"}]}
{"molecule": "[Zn+2]", "note": "[zinc]", "values": [{"measurement": "effect of metal ion on FAOD-L, in words", "setting": "[2]", "value": "inhibitory"}, {"measurement": "effect of metal ion on FAOD-A, in words", "setting": "[3]", "value": "inhibited"}]}
{"molecule": "c1ccc(-c2ccccn2)nc1", "note": "[α,α-Dipyridyl]", "values": [{"measurement": "relative activity (%)", "setting": "[1]; material 1 mM, None = 100", "value": 67, "unit": "%"}]}
{"molecule": "Fructosyl valine", "values": [{"measurement": "Specific activity (%)", "setting": "[5]; [8]", "value": 32.1, "unit": "%"}, {"measurement": "Specific activity (%)", "setting": "[6]; [8]", "value": 20.5, "unit": "%"}]}
{"molecule": "N^ε -Fructosylpoly-L-lysine", "values": [{"measurement": "Specific activity (%)", "setting": "[5]; substrate concentration 0.02%", "value": 0.30, "unit": "%"}, {"measurement": "Specific activity (%)", "setting": "[6]; substrate concentration 0.02%", "value": 2.0, "unit": "%"}]}
{"molecule": "mercury", "values": [{"measurement": "effect of metal ion on FAOD-L, in words", "setting": "[2]", "value": "inhibited completely"}, {"measurement": "effect of metal ion on FAOD-A, in words", "setting": "[3]", "value": "inhibited"}]}
